Molecular target: Streptavidin (SA) (Streptomyces avidinii, UniProt P22629)
Experiment: label-free optofluidic microbubble resonator, kinetic kon/koff global Langmuir fit
Type: binding
Conditions: read-out: ka (M)^-1 (converted)
Excerpt: label-free optofluidic microbubble resonator, kinetic kon/koff global Langmuir fit on Streptavidin (SA)

Streptavidin (SA), sequence (P22629 25-183): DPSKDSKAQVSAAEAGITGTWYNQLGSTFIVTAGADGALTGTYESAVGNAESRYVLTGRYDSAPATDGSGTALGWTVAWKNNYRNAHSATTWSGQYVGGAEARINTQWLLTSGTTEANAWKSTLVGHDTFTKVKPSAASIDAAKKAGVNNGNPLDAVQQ

Compound `C=CCc1ccc(O)c(-c2cc(CC=C)ccc2O)c1` [magnolol] has a Kd of 2.13e-11 M.
